Target: T1, PRKCI (PKC iota) (Homo sapiens, UniProt P41743)
T1 construct: purchased Thermo Fisher Scientific (Life Technologies) SelectScreen
Experiment: SelectScreen Z'LYTE
Format: biochemical
How it was run: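 NU5455 was profiled across the SelectScreen Broad panel of kinase activity and binding assays. Z'LYTE reactions such as CSF1R ran at apparent Km ATP, while the Adapta CAMK1 assay used ATP listed as 10. Values are given as percent.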

T1 sequence (P41743 whole entry): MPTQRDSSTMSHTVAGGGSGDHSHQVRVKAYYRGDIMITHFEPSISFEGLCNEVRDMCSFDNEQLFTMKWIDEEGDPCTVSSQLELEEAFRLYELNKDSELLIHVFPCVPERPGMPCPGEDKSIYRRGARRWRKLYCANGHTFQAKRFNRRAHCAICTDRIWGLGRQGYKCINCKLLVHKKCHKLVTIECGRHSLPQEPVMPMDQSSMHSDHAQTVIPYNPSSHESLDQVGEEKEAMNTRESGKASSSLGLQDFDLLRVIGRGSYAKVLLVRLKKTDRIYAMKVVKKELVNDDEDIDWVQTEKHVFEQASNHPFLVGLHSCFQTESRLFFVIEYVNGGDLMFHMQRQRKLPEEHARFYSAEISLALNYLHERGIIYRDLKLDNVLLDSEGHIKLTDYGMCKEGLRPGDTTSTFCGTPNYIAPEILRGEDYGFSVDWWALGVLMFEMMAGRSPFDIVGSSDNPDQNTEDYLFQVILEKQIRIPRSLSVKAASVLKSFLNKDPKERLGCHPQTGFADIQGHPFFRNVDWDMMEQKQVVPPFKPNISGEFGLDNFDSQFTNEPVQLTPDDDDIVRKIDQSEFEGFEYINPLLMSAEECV

`CN(C(=O)CN1CCOCC1)c1ccc2sc3c(-c4cccc5c(=O)cc(N6CC7CCC(C6)O7)oc45)cccc3c2c1` [NU5455] showed an inhibition at 1 µM of -0.8%.
